Test results from patent US20200246432A1, “NITRIC OXIDE- AND FAS LIGAND- ELUTING COMPOSITIONS AND DEVICES AND METHODS OF TREATMENT USING SAME” (YALE UNIVERSITY, priority 2017, published 2020).

Assays:
Type in all cases: cell-based
[1] = system: human aortic SMCs; assay: SMC apoptosis/killing, TUNEL staining, human aortic SMCs; conditions: DetaNONOate alone, up to 0.2 mM
Method: (§1) FIG. 3 is a set of graphs illustrating the finding that 48 hours of treatment with varying concentrations of human FasL and DetaNONOate (NO donor) increased apoptosis in human (left panel) and pig (right panel) aortic SMCs in a synergistic way.
(§2) Addition of FasL and NO donor DetaNONOate increased human and pig aortic SMC apoptosis in a synergistic fashion (FIG. 3). DetaNONOate alone, up to 0.2 mM concentration, led to minimal (<15%) death of human or porcine SMCs.

[2] = system: human umbilical vein endothelial cell (HUVEC); assay: EC viability: HUVEC cell number, apoptosis, proliferation
Method: Next, the effect of FasL and NO donor combinations on EC viability was tested.

[3] = system: pig aortic SMCs; assay: SMC apoptosis/killing, TUNEL staining, pig aortic SMCs; conditions: DetaNONOate alone, up to 0.2 mM
Method: as §1, §2

[4] = system: human aortic SMCs; assay: Fas receptor expression on cultured human aortic SMCs after NO donor treatment (staining); conditions: 0.1 mM DetaNONOate, 24 hours
Method: FIG. 2 is a set of images illustrating the finding that 24 hours of treatment with 0.1 mM DetaNONOate (NO donor) increased Fas receptors on the surface of human aortic SMCs dramatically. Blue=DAPI nuclei, red=Fas receptor. Scale bar: 50 μm.
Both local delivery of FasL, and increasing the Fas receptors on the surface of the target cells, can increase the efficiency of FasL-mediated apoptosis. Nitric oxide (NO) is known to increase surface Fas receptors on vascular SMCs (Fukuo et al., Hypertension, 1996. 27(3 Pt 2): p. 823-6; Boyle, Weissberg, and Bennett, Arterioscler Thromb Vasc Biol, 2002. 22(10): p. 1624-30). […] After 24 hours of treatment with DetaNONOate, Fas receptor expression on SMCs was increased (red stain, FIG. 2, right panel).

NCCN(CCN)N(O)N=O [DetaNONOate, 2,2′-(2-Hydroxy-2-nitrosohydrazinylidene)bis-ethanamine]
death of human SMCs [1]: < 15% | EC viability ([2]; DetaNONOate 0.2 mM): negatively affected EC viability | HUVEC cell number, rates of apoptosis or proliferation ([2]; DetaNONOate alone 0.1 mM, absence of FasL, 96 hours): did not affect | death of porcine SMCs [3]: < 15% | Fas receptor expression on SMCs [4]: increased
